# Reference: ChEMBL document CHEMBL1649447, “Colorimetric high-throughput screen for detection of heme crystallization inhibitors” (Antimicrob Agents Chemother, 2009)
# How the values were obtained:
# Heme [1] = assay: Inhibition of heme crystallization by cell-free heme crystallization screen assay
# Heme [2] = assay: Inhibition of heme crystallization by hemichrome inhibition of beta-hematin assay; format: functional
# Plasmodium falciparum = assay: Antimicrobial activity against Plasmodium falciparum 3D7 by DAPI growth inhibition assay; format: functional, organism-based
IC50 (Heme [1]),IC50 (Heme [2]),SMILES,IC50 (Plasmodium falciparum)
374 µM,1.91 equiv,CCN(CC)CCCC(C)Nc1ccnc2cc(Cl)ccc12 (configuration not stated) [CHLOROQUINE],
67 µM,1.45 equiv,CCN(CC)Cc1cc(Nc2ccnc3cc(Cl)ccc23)ccc1O.Cl,6.8 nM
476 µM,2.9 equiv,OC(c1cc(C(F)(F)F)nc2c(C(F)(F)F)cccc12)C1CCCCN1 (configuration not stated) [MEFLOQUINE],
